Data from US20230263822A1, “MODULATION OF FACTOR 11 EXPRESSION” (Ionis Pharmaceuticals, Inc., priority 2008, published 2023).
Strand notation (5' to 3'): a small letter for the sugar, then the base; units joined by * are phosphorothioate-linked, units joined directly phosphodiester-linked; [ ] holds rarer units or linkages, { } end groups; capitals alone tell only the bases. e = 2'-O-(2-methoxyethyl) (MOE); [5mC] = 5-methylcytosine; d = 2'-deoxy (DNA)

Tests used:
[1] = Hematology assays in cynomolgus monkeys (Example 46); type: in vivo
Method in brief: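 Two male and two female monkeys per group received antisense oligonucleotide subcutaneously at 25 mg/kg, three times weekly in week 1 then twice weekly through week 8; PBS controls dosed identically. Blood sampled pre-dose and repeatedly during dosing for PT, aPTT and hematologic factors; necropsy on day 55.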

[2] = system: IL-1β, IL-6, IFN-γ, TNF-α, IL-8, MIP-1α, MCP-1, MIP-1β, RANTES; experiment: Cytokine and chemokine assays in cynomolgus monkeys (Example 46); type: in vivo
Method in brief: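 Male and female monkeys, four per group, received antisense oligonucleotide s.c. at 25 mg/kg three times weekly in week 1, then twice weekly through week 8, against a PBS control. Blood was sampled 14 days pre-dose and on day 55, using primate antibodies (IL-1β, IL-6, IFN-γ, TNF-α) or cross-reacting human antibodies (others).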

[3] = day-14 (before start of treatment)

ISIS 416850: MOE gapmer, nucleobases 1275 to 1318 of SEQ ID NO: 1 (Table 8) (antisense TGCACAGTTTCTGGCAGGCC; MOE gapmer, wing and gap sizes not given here)
HCT ([1]; Day 17): 42% | MCH ([1]; Day 17): 23.7 pg | MCHC ([1]; Day 17): 31.3 g/dL | MCV ([1]; Day 17): 76 fL | RBC count ([1]; Day 17): 5.6e+06 µL⁻¹ | WBC count ([1]; Day 17): 11000 µL⁻¹ | hemoglobin content ([1]; Day 17): 13.3 g/dL | monocytes ([1]; Day 17): 3.2% | neutrophils ([1]; Day 17): 95% | platelet count ([1]; Day 17): 467 ×100/μL | HCT ([1]; Day 31): 42% | MCH ([1]; Day 31): 23.3 pg | MCHC ([1]; Day 31): 31.0 g/dL | MCV ([1]; Day 31): 75 fL | RBC count ([1]; Day 31): 5.6e+06 µL⁻¹ | WBC count ([1]; Day 31): 12000 µL⁻¹ | hemoglobin content ([1]; Day 31): 13.1 g/dL | monocytes ([1]; Day 31): 3.7% | neutrophils ([1]; Day 31): 100% | platelet count ([1]; Day 31): 507 ×100/μL | HCT ([1]; Day 45): 42% | MCH ([1]; Day 45): 22.7 pg | MCHC ([1]; Day 45): 31.0 g/dL | MCV ([1]; Day 45): 75 fL | RBC count ([1]; Day 45): 5.7e+06 µL⁻¹ | WBC count ([1]; Day 45): 12000 µL⁻¹ | hemoglobin content ([1]; Day 45): 13.1 g/dL | monocytes ([1]; Day 45): 3.8% | neutrophils ([1]; Day 45): 85% | platelet count ([1]; Day 45): 453 ×100/μL | HCT ([1]; Day 55): 40% | MCH ([1]; Day 55): 22.9 pg | MCHC ([1]; Day 55): 30.9 g/dL | MCV ([1]; Day 55): 73 fL | RBC count ([1]; Day 55): 5.6e+06 µL⁻¹ | WBC count ([1]; Day 55): 10000 µL⁻¹ | hemoglobin content ([1]; Day 55): 12.7 g/dL | monocytes ([1]; Day 55): 3.4% | neutrophils ([1]; Day 55): 108% | platelet count ([1]; Day 55): 396 ×100/μL | HCT ([1]; Day-5): 44% | MCH ([1]; Day-5): 23.7 pg | MCHC ([1]; Day-5): 30.7 g/dL | MCV ([1]; Day-5): 77 fL | RBC count ([1]; Day-5): 5.7e+06 µL⁻¹ | WBC count ([1]; Day-5): 13000 µL⁻¹ | hemoglobin content ([1]; Day-5): 13.5 g/dL | monocytes ([1]; Day-5): 2.9% | neutrophils ([1]; Day-5): 109% | platelet count ([1]; Day-5): 517 ×100/μL | HCT ([1]; Day-14): 41% | MCH ([1]; Day-14): 23.7 pg | MCHC ([1]; Day-14): 32.0 g/dL | MCV ([1]; Day-14): 74 fL | RBC count ([1]; Day-14): 5.5e+06 µL⁻¹ | WBC count ([1]; Day-14): 12000 µL⁻¹ | hemoglobin content ([1]; Day-14): 13.0 g/dL | monocytes ([1]; Day-14): 1.9% | neutrophils ([1]; Day-14): 88% | platelet count ([1]; Day-14): 462 ×100/μL | IFN-γ level ([2]; day 55): 19 pg/mL | IL-1ß level ([2]; day 55): 106 pg/mL | IL-6 level ([2]; day 55): 1 pg/mL | IL-8 level ([2]; day 55): 620 pg/mL | MCP-1 level ([2]; day 55): 887 pg/mL | MIP-1ß level ([2]; day 55): 50 pg/mL | MIP-1α level ([2]; day 55): 17 pg/mL | RANTES level ([2]; day 55): 27503 pg/mL | TNF-α level ([2]; day 55): 16 pg/mL | IFN-γ level [2, 3]: 115 pg/mL | IL-1ß level [2, 3]: 215 pg/mL | IL-6 level [2, 3]: 1 pg/mL | IL-8 level [2, 3]: 45 pg/mL | MCP-1 level [2, 3]: 434 pg/mL | MIP-1ß level [2, 3]: 31 pg/mL | MIP-1α level [2, 3]: 14 pg/mL | RANTES level [2, 3]: 4560 pg/mL | TNF-α level [2, 3]: 4 pg/mL

ISIS 445531: 5-8-5 or 6-8-6 MOE microwalk gapmer (Table 44) (antisense eG*eG*e[5mC]*eA*eT*dT*dG*dG*dT*dG*d[5mC]*dA*d[5mC]*eA*eG*eT*eT*eT)
HCT ([1]; Day 17): 43% | MCH ([1]; Day 17): 22.1 pg | MCHC ([1]; Day 17): 29.5 g/dL | MCV ([1]; Day 17): 75 fL | RBC count ([1]; Day 17): 5.8e+06 µL⁻¹ | WBC count ([1]; Day 17): 17000 µL⁻¹ | hemoglobin content ([1]; Day 17): 12.7 g/dL | monocytes ([1]; Day 17): 3.4% | neutrophils ([1]; Day 17): 85% | platelet count ([1]; Day 17): 380 ×100/μL | HCT ([1]; Day 31): 41% | MCH ([1]; Day 31): 22.0 pg | MCHC ([1]; Day 31): 29.7 g/dL | MCV ([1]; Day 31): 75 fL | RBC count ([1]; Day 31): 5.6e+06 µL⁻¹ | WBC count ([1]; Day 31): 17000 µL⁻¹ | hemoglobin content ([1]; Day 31): 12.3 g/dL | monocytes ([1]; Day 31): 4.1% | neutrophils ([1]; Day 31): 116% | platelet count ([1]; Day 31): 376 ×100/μL | HCT ([1]; Day 45): 41% | MCH ([1]; Day 45): 21.6 pg | MCHC ([1]; Day 45): 29.0 g/dL | MCV ([1]; Day 45): 75 fL | RBC count ([1]; Day 45): 5.5e+06 µL⁻¹ | WBC count ([1]; Day 45): 20000 µL⁻¹ | hemoglobin content ([1]; Day 45): 12.0 g/dL | monocytes ([1]; Day 45): 4.4% | neutrophils ([1]; Day 45): 93% | platelet count ([1]; Day 45): 345 ×100/μL | HCT ([1]; Day 55): 41% | MCH ([1]; Day 55): 21.7 pg | MCHC ([1]; Day 55): 29.6 g/dL | MCV ([1]; Day 55): 74 fL | RBC count ([1]; Day 55): 5.6e+06 µL⁻¹ | WBC count ([1]; Day 55): 15000 µL⁻¹ | hemoglobin content ([1]; Day 55): 12.1 g/dL | monocytes ([1]; Day 55): 4.1% | neutrophils ([1]; Day 55): 91% | platelet count ([1]; Day 55): 319 ×100/μL | HCT ([1]; Day-5): 42% | MCH ([1]; Day-5): 22.2 pg | MCHC ([1]; Day-5): 30.0 g/dL | MCV ([1]; Day-5): 74 fL | RBC count ([1]; Day-5): 5.7e+06 µL⁻¹ | WBC count ([1]; Day-5): 15000 µL⁻¹ | hemoglobin content ([1]; Day-5): 12.6 g/dL | monocytes ([1]; Day-5): 2.2% | neutrophils ([1]; Day-5): 80% | platelet count ([1]; Day-5): 416 ×100/μL | HCT ([1]; Day-14): 41% | MCH ([1]; Day-14): 22.2 pg | MCHC ([1]; Day-14): 30.9 g/dL | MCV ([1]; Day-14): 72 fL | RBC count ([1]; Day-14): 5.7e+06 µL⁻¹ | WBC count ([1]; Day-14): 20000 µL⁻¹ | hemoglobin content ([1]; Day-14): 12.6 g/dL | monocytes ([1]; Day-14): 1.3% | neutrophils ([1]; Day-14): 60% | platelet count ([1]; Day-14): 379 ×100/μL | IFN-γ level ([2]; day 55): 15 pg/mL | IL-1ß level ([2]; day 55): 155 pg/mL | IL-6 level ([2]; day 55): 1 pg/mL | IL-8 level ([2]; day 55): 293 pg/mL | MCP-1 level ([2]; day 55): 339 pg/mL | MIP-1ß level ([2]; day 55): 84 pg/mL | MIP-1α level ([2]; day 55): 12 pg/mL | RANTES level ([2]; day 55): 5935 pg/mL | TNF-α level ([2]; day 55): 16 pg/mL | IFN-γ level [2, 3]: 68 pg/mL | IL-1ß level [2, 3]: 101 pg/mL | IL-6 level [2, 3]: 2 pg/mL | IL-8 level [2, 3]: 83 pg/mL | MCP-1 level [2, 3]: 317 pg/mL | MIP-1ß level [2, 3]: 22 pg/mL | MIP-1α level [2, 3]: 25 pg/mL | RANTES level [2, 3]: 7825 pg/mL | TNF-α level [2, 3]: 9 pg/mL
